In patent US7122624B2, “Parathyroid hormone receptor ligands” (The United States of America as represented by the …, priority 1999, dated 2006):
Where two headings read alike, the source gives them in different places. Non-standard residues stand in square brackets, D forms with d. Residues, ends and D or L forms follow the SMILES beside them. Tyr(3-I) = N[C@@H](Cc1ccc(O)c(I)c1)C(=O)O; Nle = CCCC[C@H](N)C(=O)O

Legend:
[1] = molecular target: T1, human PTH1 receptor (Homo sapiens, UniProt Q03431); assay: [125I]TIP(7–39) saturation and kinetic binding to the human PTH1 receptor in HEK293 cell membranes; parameters: expressed in transfected cells
T1 sequence (Q03431 27-593): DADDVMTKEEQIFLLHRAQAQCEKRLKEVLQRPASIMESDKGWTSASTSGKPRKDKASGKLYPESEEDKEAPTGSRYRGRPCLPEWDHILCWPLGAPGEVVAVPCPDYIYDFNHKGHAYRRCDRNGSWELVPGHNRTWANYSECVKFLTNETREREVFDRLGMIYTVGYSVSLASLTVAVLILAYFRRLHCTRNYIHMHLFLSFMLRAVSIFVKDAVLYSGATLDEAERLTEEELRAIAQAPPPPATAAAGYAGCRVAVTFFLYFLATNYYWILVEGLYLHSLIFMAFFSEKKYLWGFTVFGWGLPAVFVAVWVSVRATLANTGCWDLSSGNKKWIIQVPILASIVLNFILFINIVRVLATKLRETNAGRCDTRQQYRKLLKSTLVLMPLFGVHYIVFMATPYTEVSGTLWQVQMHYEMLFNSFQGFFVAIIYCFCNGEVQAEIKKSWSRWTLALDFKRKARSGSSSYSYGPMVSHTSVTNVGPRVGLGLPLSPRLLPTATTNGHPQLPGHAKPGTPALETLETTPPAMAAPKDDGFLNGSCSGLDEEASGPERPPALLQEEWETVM
Experimental: Binding of [^125I]TIP(7–39) to HEK293 membranes expressing the PTH1 receptor (FIGS. 21 and 22) was performed using rapid filtration to separate bound and free radioligand as described in Examples, using the assay buffer described above. Incubations were carried out in 96-well polypropylene plates. The incubation mixture was transferred to a polyvinylidene fluoride filtration plate (MAHVN45, Millipore, Bedford, Mass.) and the membranes collected by rapid filtration using a Millipore Multiscreen vacuum manifold. In saturation experiments, varying concentrations of [^125I]TIP(7–39) were incubated in triplicate with 10 μg membranes in the absence or presence of 1 μM unlabeled TIP(7–39) (for measurement of total binding and non-specific binding, respectively) for 1 hour at 21° C. In radioligand association experiments, radioligand and buffer were brought to 21° C. by incubation in a water bath for 15 minutes. Similarly pre-warmed membranes were then added to the wells at various time points and the assay wells harvested simultaneously. Non-specific binding in these experiments was defined using 300 nM unlabeled TIP(7–39), incubated with membranes and radioligand for 1 minute and 60 minutes. In the experiment in FIG. 23 a second, unlabeled ligand was included in the assay incubation in order to estimate the association and dissociation rate constants of the unlabeled ligand (see below). In dissociation experiments radioligand and membranes were equilibrated for 60 minutes prior to addition of unlabeled TIP(7–39) (300 nM final concentration) at various time points. All time points were harvested simultaneously. (As a result the shorter time points of the time course were equilibrated with radioligand for between 1 and 2 hours.) Non-specific binding was defined using 300 nM unlabeled TIP(7–39), which was included in the equilibration phase of the assay.
[^125I]TIP(7–39) saturation of the PTH1 receptor was analyzed as follows: First, non-specific binding (measured in the presence of 1 μM TIP(7–39)) was estimated as a fraction of the free radioligand concentration by linear regression. The values of KD and Bmax were obtained by fitting total binding data (measured in the absence of unlabeled ligand) to the following equation using Prism 2.01:
[^125I]TIP(7–39) association data (total binding) were fitted to a bi-exponential association equation to account for association to specific and non-specific sites (FIG. 23). This procedure was used because the value of non-specific binding measured after 60 minutes was slightly greater than the value measured after 1 minute. In the analysis the equilibrium level of non-specific binding was fixed at that measured at 60 minutes. The observed association rate constant for non-specific binding was high (>2 min^−1). The observed association rate of specific radioligand (L) binding (kon(obs)) was fitted by linear regression to the equation kon(obs)=koff+kon[L] where kon and koff are the association and dissociation rate constants respectively. [^125I]TIP(7–39) dissociation data were fitted to a mono-exponential dissociation equation.
The association and dissociation rate constants of unlabeled ligands were determined using the method devised by Motulsky and Mahan, Mol Pharmacol 25, 1–9, 1984, in which association of a radiolabeled antagonist ([^125I]TIP(7–39)) is measured in the presence of a fixed concentration of the unlabeled ligand. […]

[2] = molecular target: T1, human PTH1 receptor; parameters: expressed in transfected cells; host or cells: COS-7 (transient); details: cited from earlier work
[3] = molecular target: T2, PTH2 receptor (Homo sapiens, UniProt P49190); assay: cAMP accumulation in COS-7 cells transiently expressing the human PTH2 receptor; type: cell-based; parameters: expressed in transfected cells; host or cells: COS-7 (transient); details: COS-7
T2 sequence (P49190 25-550): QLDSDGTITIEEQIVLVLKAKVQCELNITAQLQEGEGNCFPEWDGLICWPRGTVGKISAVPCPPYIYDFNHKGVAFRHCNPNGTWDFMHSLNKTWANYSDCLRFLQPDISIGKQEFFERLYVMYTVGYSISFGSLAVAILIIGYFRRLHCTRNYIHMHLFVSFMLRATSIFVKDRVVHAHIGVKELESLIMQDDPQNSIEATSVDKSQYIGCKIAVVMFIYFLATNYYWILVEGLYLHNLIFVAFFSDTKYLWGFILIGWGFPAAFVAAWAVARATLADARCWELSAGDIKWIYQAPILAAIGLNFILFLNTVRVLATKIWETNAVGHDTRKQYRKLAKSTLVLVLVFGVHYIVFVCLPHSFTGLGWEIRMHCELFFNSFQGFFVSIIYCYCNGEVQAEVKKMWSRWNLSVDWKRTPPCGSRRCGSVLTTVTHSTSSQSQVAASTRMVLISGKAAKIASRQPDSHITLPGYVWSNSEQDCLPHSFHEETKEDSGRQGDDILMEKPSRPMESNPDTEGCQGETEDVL
Description: Cell culture supplies were obtained from Life Technologies (Frederick, Md.) except for fetal bovine serum which was from Sigma (St. Louis, Mo.).
The constructs containing the cDNA sequences of the human PTH2 receptor and β-galactosidase have been previously described.
All peptides were purchased from either Bachem (Torrance, Calif.) or Peninsula Laboratories (Belmont, Calif.). The letters ‘b,’ ‘r’ and ‘h’ designate the peptide sequence as bovine, rat and human, respectively. […] [α-^32P]dCTP was purchased from ICN Biomedicals (Costa Mesa, Calif.). Bovine hypothalamic extract was prepared by acid extraction, gel-filtration and reverse-phase HPLC as previously described. […] Antagonist inhibitory potency was examined by measuring the concentration-dependence of rPTH(1–34)-stimulated cAMP accumulation in the presence and absence of antagonist.
Statistical comparison of two sample means was evaluated using the two-tailed Student's t-test. […] Antagonist inhibitory potency was quantified using the pA2, value, the negative logarithm of the concentration of antagonist that produces a two-fold decrease of agonist EC50. This was calculated using the following equation: pA2=((EC50/EC50′)−1)−log [antagonist]

[4] = molecular target: T1, human PTH1 receptor; assay: cAMP accumulation in HEK293 cells stably expressing the human PTH1 receptor (293PTH1); type: cell-based; parameters: expressed in transfected cells
[5] = molecular target: T3, C-terminal hemaglutinin-tagged human PTH1 receptor (Homo sapiens, UniProt Q03431); assay: cAMP accumulation in COS-7 cells expressing a C-terminal hemaglutinin-tagged human PTH1 receptor; type: cell-based; details: COS-7; five experiments; read-out: Emax, % of the maximal response to rPTH(1–34)
T3 sequence (Q03431 27-593): T1 sequence (Q03431 27-593)

[6] = molecular target: T2, PTH2 receptor; assay: cAMP accumulation in HEK293 cells stably expressing the human PTH2 receptor (293PTH2); type: cell-based; parameters: expressed in transfected cells; details: 1 μM peptide
Experimental: COS-7 cells were grown as previously described in Clark et al. For cAMP accumulation assays COS-7 cells were transfected as previously described in Clark et al. except that transfections were performed in 10 cm tissue culture dishes using 10 μg of plasmid DNA. The cells were transferred following trypsinization to 96-well plates at a density of 50,000 cells/well the following day. Cells were used for cAMP accumulation assays three days after transfection.
Ligand-stimulated accumulation of cAMP was measured as described in Examples, using a radioimmunoassay to quantify cAMP (Clark et al., supra).
For cAMP accumulation data y is the amount of cAMP produced at a given peptide concentration, min is the cAMP level in the absence of ligand and max is the maximum level produced. […] Statistical comparison of multiple means was performed initially by single-factor analysis of variance followed by post-hoc analysis with the Newman-Keuls test. Statistical comparison of two means was performed using a two-tailed Student's t-test.

SMILES: CSCC[C@H](NC(=O)[C@H](Cc1ccc(O)c(I)c1)NC(=O)[C@H](CO)NC(=O)[C@H](CC(N)=O)NC(=O)[C@H](CC(C)C)NC(=O)[C@H](Cc1c[nH]c2ccccc12)NC(=O)[C@H](Cc1c[nH]cn1)NC(=O)[C@H](CCCNC(=N)N)NC(=O)[C@H](CCCNC(=N)N)NC(=O)[C@H](CCC(=O)O)NC(=O)[C@H](CC(C)C)NC(=O)[C@H](C)NC(=O)[C@H](C)NC(=O)[C@H](CC(C)C)NC(=O)[C@H](CC(C)C)NC(=O)[C@H](CCCNC(=N)N)NC(=O)[C@H](C)NC(=O)[C@H](CCCNC(=N)N)NC(=O)[C@H](CCC(=O)O)NC(=O)[C@H](CCCNC(=N)N)NC(=O)[C@H](Cc1ccccc1)NC(=O)[C@H](C)NC(=O)[C@H](C)NC(=O)[C@@H](N)CC(=O)O)C(=O)N[C@@H](Cc1c[nH]cn1)C(=O)N[C@@H](CCCCN)C(=O)N[C@@H](CC(C)C)C(=O)N[C@@H](CC(C)C)C(=O)N[C@H](C(=O)N[C@@H](CC(C)C)C(=O)N[C@@H](CC(=O)O)C(=O)N[C@@H](C)C(=O)N1CCC[C@H]1C(=O)O)C(C)C [[^125I]TIP(7–39)] (H-DAAFRERARLLAALERRHWLNS[Tyr(3-I)]MHKLLVLDAP-OH; N-terminus and C-terminus assumed)
- koff ([1]; directly measured from dissociation time course, read-out: dissociation rate constant (k2) (converted)): 0.00085 s⁻¹
- koff ([1]; estimate from the plot of kon(obs) vs. concentration of radioligand, read-out: dissociation rate constant (converted)): 0.00128 s⁻¹
- kon ([1]; held constant in Equation 4 analysis, read-out: association rate constant (k1) (converted)): 1.48e+06 M⁻¹ s⁻¹
- Bmax ([1]; saturation experiments, n=3): 1.3 ± 0.1 pmol/mg

SMILES: CCCC[C@H](NC(=O)[C@H](CO)NC(=O)[C@H](CO)NC(=O)[C@H](CC(C)C)NC(=O)[C@H](Cc1c[nH]cn1)NC(=O)[C@H](CCCCN)NC(=O)CNC(=O)[C@H](CC(C)C)NC(=O)[C@H](CC(N)=O)NC(=O)[C@H](Cc1c[nH]cn1)NC(=O)[C@H](CCCC)NC(=O)[C@H](Cc1ccccc1)NC(=O)[C@H](CCC(N)=O)NC(=O)[C@@H](NC(=O)[C@H](CCC(=O)O)NC(=O)[C@@H](N)CO)[C@@H](C)CC)C(=O)N[C@@H](CCC(=O)O)C(=O)N[C@@H](CCCNC(=N)N)C(=O)N[C@H](C(=O)N[C@@H](CCC(=O)O)C(=O)N[C@@H](Cc1c[nH]c2ccccc12)C(=O)N[C@@H](CC(C)C)C(=O)N[C@@H](CCCNC(=N)N)C(=O)N[C@@H](CCCCN)C(=O)N[C@@H](CCCCN)C(=O)N[C@@H](CC(C)C)C(=O)N[C@@H](CCC(N)=O)C(=O)N[C@@H](CC(=O)O)C(=O)N[C@H](C(=O)N[C@@H](Cc1c[nH]cn1)C(=O)N[C@@H](CC(N)=O)C(=O)N[C@@H](Cc1ccc(O)cc1)C(N)=O)C(C)C)C(C)C [[Nle^8,18, Tyr^34]bPTH(3-34), [Nle^8,18, Tyr^34]bPTH(3–34) amide] (H-SEIQF[Nle]HNLGKHLSS[Nle]ERVEWLRKKLQDVHNY-NH2; N-terminus assumed)
- Bmax ([2]; homologous displacement experiments): 0.7 pmol/mg
- Kd ([2]; reported previously): 2 nM
- EC50 ([3]; activation of adenylyl cyclase, figures in brackets): 5.2 nM
- agonist character ([3]; cAMP): partial agonists
- Emax ([3]; read-out: Emax, % of response to 1 μM hPTH(1-34), intrinsic activity): 37 ± 3%
- activation of the PTH1 receptor ([4]; 293PTH1 cells, cAMP): not detected
- koff ([1]; estimated by Equation 4 from [125I]TIP(7–39) association, read-out: dissociation rate constant of unlabeled ligand (converted)): 0.0005 s⁻¹
- Emax [5]: 26 ± 4%

SMILES: CC[C@H](C)[C@H](NC(=O)[C@H](CCC(=O)O)NC(=O)[C@H](CO)NC(=O)[C@@H](NC(=O)[C@H](C)N)C(C)C)C(=O)N[C@@H](CCC(N)=O)C(=O)N[C@@H](CC(C)C)C(=O)N[C@@H](CCSC)C(=O)N[C@@H](Cc1c[nH]cn1)C(=O)N[C@@H](CC(N)=O)C(=O)N[C@@H](CC(C)C)C(=O)NCC(=O)N[C@@H](CCCCN)C(=O)N[C@@H](Cc1c[nH]cn1)C(=O)N[C@@H](CC(C)C)C(=O)N[C@@H](C)C(=O)N[C@@H](CO)C(=O)N[C@H](C(=O)N[C@@H](CCC(=O)O)C(=O)N[C@@H](CCCNC(=N)N)C(=O)N[C@@H](CCSC)C(=O)N[C@@H](CCC(N)=O)C(=O)N[C@@H](Cc1c[nH]c2ccccc12)C(=O)N[C@@H](CC(C)C)C(=O)N[C@@H](CCCNC(=N)N)C(=O)N[C@@H](CCCCN)C(=O)N[C@@H](CCCCN)C(=O)N[C@@H](CC(C)C)C(=O)N[C@@H](CCC(N)=O)C(=O)N[C@@H](CC(=O)O)C(=O)N[C@H](C(=O)N[C@@H](Cc1c[nH]cn1)C(=O)N[C@@H](CC(N)=O)C(=O)N[C@@H](Cc1ccccc1)C(=O)O)C(C)C)C(C)C [PTH]
- stimulation of cAMP accumulation ([4]; 1 μM peptide): approximately 50 fold
- stimulation of cAMP accumulation [6]: approximately 50 fold
